Source: ChEMBL document CHEMBL3877305, “Improved Potency of Indole-Based NorA Efflux Pump Inhibitors: From Serendipity toward Rational Design and Development” (J Med Chem, 2017)
Values after ≈ are worked out from the molar mass of the structure shown.

What was measured:
[1] = biological target: T1, Quinolone resistance protein NorA (Staphylococcus aureus) (UniProt P0A0J7); experiment: Inhibition of Staphylococcus aureus 1199B NorA assessed as inhibition of ethidium bromide efflux at 50 uM measured after 5 mins by fluorometric method relative to control
T1 sequence (whole entry): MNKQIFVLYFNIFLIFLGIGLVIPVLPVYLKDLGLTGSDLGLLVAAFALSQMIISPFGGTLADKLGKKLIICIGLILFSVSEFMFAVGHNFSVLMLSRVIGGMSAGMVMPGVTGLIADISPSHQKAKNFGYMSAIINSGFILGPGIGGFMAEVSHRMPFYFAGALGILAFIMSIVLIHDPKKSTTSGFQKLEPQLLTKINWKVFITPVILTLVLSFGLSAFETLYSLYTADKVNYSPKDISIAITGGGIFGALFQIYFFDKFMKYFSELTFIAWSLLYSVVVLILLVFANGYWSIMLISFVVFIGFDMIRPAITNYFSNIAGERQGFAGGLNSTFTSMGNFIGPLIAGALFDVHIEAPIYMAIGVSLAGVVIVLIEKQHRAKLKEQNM

Staphylococcus aureus = experiment: Antibacterial activity against Staphylococcus aureus 1199B by microdilution method; format: functional
[2] = biological target: T1, Quinolone resistance protein NorA (Staphylococcus aureus); experiment: Inhibition of Staphylococcus aureus 1199B NorA assessed as potentiation of ciprofloxacin-induced antibacterial activity by checkerboard assay
[3] = biological target: T2, Quinolone resistance protein NorA (Staphylococcus aureus, UniProt P0A0J7); experiment: Inhibition of Staphylococcus aureus 1199B NorA assessed as inhibition of ethidium bromide efflux measured after 5 mins by fluorometric method
T2 sequence (P0A0J7 whole entry): T1 sequence (whole entry)

[4] = Dissociation constant, pKa of the compound; format: physicochemical
[5] = Solubility in D2O solution at 25 degC by 1H NMR analysis; format: physicochemical
[6] = Metabolic stability in human liver microsomes at 10 uM preincubated for 10 mins followed by NADPH addition measured after 30 mins by HPLC-MS/MS method; format: ADME; details: 0.5 h

Compound	inhibition [1] [%]	MIC (Staphylococcus aureus) [µg/mL]	IC50 [3] [µM]	further results
OCCCN1CCN(CCCOc2ccccc2-c2ccccc2)CC1	< 10			
CCOC(=O)c1c(C)n(Cc2ccccc2)c2ccc(OCCCN3CCCCC3)cc12		> 100		fractional inhibitory concentration index (FICI) [2]: 0.28
CCOC(=O)c1c(C)n(Cc2ccccc2)c2ccc(OCCCCNCc3ccc(Oc4nnnn4-c4ccccc4)c(OC)c3)cc12	101	> 100	2.02	pKa [4]: 8.2; solubility [5]: < 2 µM; Stability [6]: Stable; fractional inhibitory concentration index (FICI) [2]: 0.25
CCOC(=O)c1c(C)n(Cc2ccccc2)c2ccc(OCCCN3CCN(CCCOc4ccc(F)cc4)CC3)cc12	53.7			
CCOC(=O)c1c(C)n(Cc2ccccc2)c2ccc(OCC(O)CNCC(O)COc3ccc4c(c3)c(C(=O)OCC)c(C)n4Cc3ccccc3)cc12 (stereo not given)	78 to 100		19.9	
CCOC(=O)c1c(C)n(Cc2ccccc2)c2ccc(OCCN3CCN(CCCOc4ccccc4-c4ccccc4)CC3)cc12	27.1			
CCOC(=O)c1c(C)n(Cc2ccccc2)c2ccc(OCCCNCc3nnnn3-c3ccccc3)cc12	22.8			
CCOC(=O)c1c(C)n(Cc2ccccc2)c2ccc(OCCN3CCN(CCOc4ccccc4-c4ccccc4)CC3)cc12	24.3 to 50			
CCOC(=O)c1c(C)n(Cc2ccccc2)c2ccc(OCCCN3CCN(CCCOc4ccccc4-c4ccccc4)CC3)cc12	12.1			
CCOC(=O)c1c(C)n(Cc2ccccc2)c2ccc(OCCCNCc3ccccc3)cc12		> 100		
CCOC(=O)c1c(C)n(Cc2ccccc2)c2ccc(OCCCNCc3ccc(Oc4nnnn4-c4ccccc4)c(OC)c3)cc12	95 to 96.5	> 100	1.8 to 1.82	pKa [4]: 7.21; solubility [5]: < 2 µM; Stability [6]: Stable; fractional inhibitory concentration index (FICI) [2]: 0.27
COc1cc(CNCCO)ccc1Oc1nnnn1-c1ccccc1	< 10			
CCOC(=O)c1c(C)n(Cc2ccccc2)c2ccc(OCCCNCc3ccc(F)c(OC)c3)cc12	67	6.3 (≈ 12.5 µM)	3.83	
CCOC(=O)c1c(C)n(Cc2ccccc2)c2ccc(OCCCN)cc12		> 100		
CCOC(=O)c1c(C)n(Cc2ccccc2)c2ccc(OCC(O)CNCc3ccc(Oc4nnnn4-c4ccccc4)c(OC)c3)cc12 (stereo not given)	96.9	> 100	4.93	fractional inhibitory concentration index (FICI) [2]: 0.13
CCOC(=O)c1c(C)n(Cc2ccccc2)c2ccc(OCCNCc3ccc(Oc4nnnn4-c4ccccc4)c(OC)c3)cc12	50.3			
